Test [1] has as its system TNFα release from human peripheral blood mononuclear cells. In words: Inhibition of TNFα release from LPS-stimulated human peripheral blood mononuclear cells (TNFα screen). The class given is cell-based. The settings on record: PBMC, 18 hours incubation, TNFα in supernatant by ELISA. The protocol: Venous blood is collected from healthy volunteers and the mononuclear cells purified by centrifugation through Histopaque (Ficoll) cushions. TNFα production from these cells is stimulated by addition of lipopolysaccharide. After 18 hours incubation in the presence of LPS, the cell supernatant is removed and the concentration of TNFα in the supernatant determined by ELISA.
(§1) Data are presented below for the Examples in which the TNFα and PDE4 inhibition are presented as IC50 values in nM.
On the technique in general: In an ELISA, binding on a coated surface is turned into a signal by an enzyme label.

In test [2] the test system is PDE4. The test is described as follows: PDE4 inhibition: hydrolysis of tritium labelled cAMP to AMP, SPA bead scintillation counting. Format: biochemical. To be noted: tritium labelled cAMP incubated with PDE4, yttrium silicate SPA beads. How it is done: The PDE4 inhibitory activity of the nicotinamide derivatives of the formula (I) is determined by the ability of compounds to inhibit the hydrolysis of cAMP to AMP by PDE4 (Thompson J W, Teraski W L, Epstein P M, Strada S J., “Assay of nucleotidephosphodiesterase and resolution of multiple molecular forms of the isoenzyme”, Advances in cyclic nucleotides research, edited by Brooker G, Greengard P, Robinson G A. Raven Press, New York 1979, 10, p. 69-92). Tritium labelled cAMP is incubated with PDE4. Following incubation, the radiolabelled AMP produced is able to bind yttrium silicate SPA beads. These SPA beads subsequently produce light that can be quantified by scintillation counting. The addition of a PDE4 inhibitor prevents the formation of AMP from cAMP and counts are diminished. The IC50 of a PDE4 inhibitor can be defined as the concentration of a compound that leads to a 50% reduction in counts compared to the PDE4 only (no inhibitor) control wells.
as §1

Experimental findings from patent publication US20050043326A1, “Compounds” (Pfizer Inc, priority 2003, published 2005) are described below.

Broadly, the pIC50 is the IC50 on a negative log10 scale, so that one unit is a factor of ten. The low end stands for a large IC50, the high end for a small IC50.

pIC50: −log10 of the molar value.

Consider `Cc1ccc(C(=O)N[C@H]2CC[C@@H](NC(=O)c3cc(F)cnc3OC3CCSCC3)CC2)c(O)c1` [Example 63, Syn-5-Fluoro-N-[4-(2-hydroxy-4-methyl-benzoylamino)-cyclohexyl]-2-(tetrahydro-thiopyran-4-yloxy)-nicotinamide], for which the pIC50 in test [1] was 11.70; in test [2], 9.30.

Consider `O=C(N[C@H]1CC[C@@H](NS(=O)(=O)c2cccc3cccnc23)CC1)c1cccnc1OC1CCSCC1` [Example 65], for which the values for the pIC50 in test [1] and in test [2] were 10.70 and 8.74, respectively.

`O=C(N[C@H]1CC[C@@H](NS(=O)(=O)c2c(O)ccc3nsnc23)CC1)c1cc(F)cnc1OC1CCSCC1` [Example 74, Syn-5-Fluoro-N-[4-(5-hydroxy-benzo[1,2,5]thiadiazole-4-sulfonylamino)-cyclohexyl]-2-(tetrahydro-thiopyran-4-yloxy)-nicotinamide]: the pIC50 in test [1] is 9.00; in test [2] it was 8.46.
